Results on 5 compounds are retold here after patent US10421751B2, “Dihydro-2H-benzo[b][1,4]oxazine sulfonamide and related compounds for use as agonists of RORγ and the treatment of disease” (Lycera Corporation, priority 2015, dated 2019).

Assay [1] deals with T1, RORγ-LBD (Homo sapiens, UniProt P51449).
T1 construct: made in house; host or cells: SF9 cells, baculovirus expression system; used as diluted lysate
T1 sequence (P51449 269-508 limits assumed): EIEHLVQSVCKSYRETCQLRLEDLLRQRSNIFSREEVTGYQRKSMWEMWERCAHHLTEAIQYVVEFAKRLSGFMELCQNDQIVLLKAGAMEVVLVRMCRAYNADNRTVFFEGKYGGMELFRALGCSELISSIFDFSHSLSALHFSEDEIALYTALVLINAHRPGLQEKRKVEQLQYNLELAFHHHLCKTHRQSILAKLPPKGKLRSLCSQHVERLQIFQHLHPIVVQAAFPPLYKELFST
Put plainly: RORγ-Ligand Binding Domain (LBD) TR-FRET Assay. The class given is biochemical. To be noted: for EC50: in presence of 2 μM RORγ antagonist ursolic acid, SRC1 coactivator peptide; for TR-FRET Assay Max Response: upper plateau of 4-parameter fit, signal in the absence of ursolic acid or test compound set as 100. The protocol: HIS-tagged RORγ-LBD protein was expressed in SF9 cells using a baculovirus expression system. The lysate was diluted in assay buffer (50 mM Tris pH 7.0, 50 mM KCl, 1 mM EDTA, 0.1 mM DTT, 0.01% BSA) to obtain RORγ-LBD final concentration of ˜3 nM in a 384-well assay plate (need to titrate for each batch of protein).
A stock of biotinylated-LXXLL peptide from coactivator SRC1 (Biotin-[…]) was prepared in assay buffer and added to each well (200 nM final concentration). A solution of Europium tagged anti-HIS antibody (0.6 nM final concentration) and APC-conjugated streptavidin (30 nM final concentration) were also added to each well. RORγ antagonist ursolic acid was also included at a final concentration of 2 μM. Compounds were diluted in DMSO and further diluted in assay buffer with a final DMSO concentration at 1%.
The final assay mixture was incubated overnight at 4° C. or 2 hours at room temperature, and the fluorescence signal was measured on an Envision plate reader: (Excitation filter=340 nm; APC emission=665 nm; Europium emission=615 nm; dichroic mirror=D400/D630; delay time=100 μs, integration time=200 μs). 50% Effective concentration (EC50) values for test compounds were calculated from the quotient of the fluorescence signal at 665 nm divided by the fluorescence signal at 615 nm. The quotient of the fluorescence signals in the absence of ursolic acid or test compound is set as 100. Max Response is defined as the upper plateau in the signal as determined by line-fit using a 4-parameter logistic model in PRISM (GraphPad).

Assay [2] concerns the target T2, Gal4-RORγ-LBD (Homo sapiens, UniProt P51449).
T2 construct: expressed in transfected cells; pcDNA3.1neo plasmid, co-transfected with pGL4.31 Gal4-luciferase reporter
T2 sequence (P51449 269-508 limits assumed): T1 sequence (P51449 269-508 limits assumed)
The experiment in a line: Gal4-RORγ Luciferase Reporter Assay in HEK-293T Cells. To be noted: for EC50: HEK-293 cells, in presence of 2 μM ursolic acid, overnight incubation, read-out: Ga14-RORγ Assay EC50; for Ga14-RORγ Assay Max Response: upper plateau of 4-parameter fit, luciferase signal in the absence of ursolic acid or test compound defined at 100. The class given is cell-based. As for the experimental part:
In the following protocol, HEK-293 cells were transfected with a construct comprising the Gal4 DNA binding domain fused to the ligand binding domain of RORγ (Gal4-RORγ-LBD) in a pcDNA3.1neo plasmid, and also with a reporter construct comprising pGL4.31 Gal4-luciferase (Promega). Control cells were prepared similarly using empty pcDNA3.1neo and pGL4.31 vectors.
Trans-IT reagent (Mirus, 60 μL) at room temperature was added drop wise to OptiMEM (Invitrogen, 1.5 ml). This reagent mixture was mixed by inversion then incubated for 5 to 30 minutes at room temperature. It then was added to a solution of both expression vectors (5 μg each), mixed, and incubated at room temperature for about 20 minutes. HEK-293 cells were harvested from incubation flasks by removing the media, treating with TrypLE Express (Invitrogen), and incubating until the cells detached from the bottom of the flask (approximately 2-5 minutes). 10 Million cells were collected by centrifugation and re-suspended in 10 mL of Dulbecco's Modified Eagle Medium, High Glucose (DMEM, Invitrogen) containing 10% Fetal Bovine Serum and 100 IU each of penicillin and streptomycin. The re-suspended cells and the transfection mixture were added to a T75 flask, mixed and incubated overnight at 37° C. and 5% CO2.
The cells were harvested as described above, counted, and centrifuged to obtain the desired number of cells, then re-suspended in complete growth media at 0.75×10^6 cells/mL. The RORγ antagonist, ursolic acid, was added to the cells at a final concentration of 2 μM. Cells were plated at 20 μL of cell suspension/well (10,000-15,000 cells/well) in white tissue culture treated 384 well plates. Test compounds were dissolved at 10 mM in DMSO then diluted into complete growth medium to 5× the final intended test concentration. These drug stock solutions, 5 μL/well were added to the tissue culture plate. The final DMSO concentration was 0.2%. The plates were briefly centrifuged then incubated overnight at 37° C. and 5% CO2. To conduct the assay, the tissue culture plates were allowed to equilibrate to room temperature and One-Glo luciferase reagent (Promega, 25 μL/well) was added. The plates were briefly centrifuged then incubated at room temperature for 10 minutes. The luciferase intensity was read on an Envision plate reader (Perkin Elmer). RORγ activity was determined relative to controls and plotted as a function of test compound concentration using PRISM (GraphPad) to determine a 50% effective concentration (EC50). The luciferase signal in the absence of ursolic acid or test compound is defined at 100. The Max Response is the upper plateau in the signal as determined by line-fit using a 4-parameter logistic model in PRISM (GraphPad).

Regarding `C/C(=C\c1ccc2c(c1)N(S(=O)(=O)c1cccc(C(F)(F)F)c1)C[C@H](CCc1n[nH]c(=O)o1)O2)c1c(F)cccc1Cl`, in assay [1], the EC50 was less than 100 nM and the “TR-FRET Assay Max Response” value is reported as “** (a value in the range of greater than 90 to 150)”. Further, in assay [2], the half-maximal effective concentration (EC50) is 100 to 5000 nM and the “Ga14-RORγ Assay Max Response” value is reported as “** (a value in the range of greater than 90 to 150)”.
For `C/C(=C\c1ccc2c(c1)N(S(=O)(=O)c1cccc(C(F)(F)F)c1)C[C@H](CCc1nn[nH]n1)O2)c1c(F)cccc1Cl`, in assay [1], the EC50 was less than 100 nM and the “TR-FRET Assay Max Response” value is listed as “*** (a value in the range of greater than 150 to 200)”. In addition, in assay [2], the EC50 lay in the range of 100 to 5000 nM and the “Ga14-RORγ Assay Max Response” value was “*** (a value in the range of greater than 150 to 200)”.
Regarding `CCOc1nn(CC)cc1S(=O)(=O)N1C[C@H](CCc2n[nH]c(=O)o2)Oc2ccc(/C=C/c3c(Cl)cccc3C(F)(F)F)cc21`, in assay [1], the concentration for a half-maximal effect (EC50) is less than 100 nM and the “TR-FRET Assay Max Response” value was “**** (a value greater than 200)”. Also, in assay [2], the EC50 lay within 100 to 5000 nM and the “Ga14-RORγ Assay Max Response” value is reported as “** (a value in the range of greater than 90 to 150)”.
Turning to `CCOc1ncc(C(F)(F)F)cc1S(=O)(=O)N1C[C@H](CCc2n[nH]c(=O)o2)Oc2ccc(/C=C(\C)c3c(F)cccc3Cl)cc21`, in assay [1], the EC50 is less than 100 nM and the “TR-FRET Assay Max Response” value is reported as “**** (a value greater than 200)”. For the same compound, in assay [2], the EC50 was in the range of 100 to 5000 nM and the “Ga14-RORγ Assay Max Response” value is reported as “** (a value in the range of greater than 90 to 150)”.
Regarding `C/C(=C\c1ccc2c(c1)N(S(=O)(=O)c1ccc(F)c(OC(F)F)c1)C[C@H](CCc1n[nH]c(=O)o1)O2)c1c(F)cccc1Cl`, in assay [1], the EC50 is less than 100 nM and the “TR-FRET Assay Max Response” value was “**** (a value greater than 200)”. Also, in assay [2], the EC50 is 100 to 5000 nM and the “Ga14-RORγ Assay Max Response” value is listed as “** (a value in the range of greater than 90 to 150)”.
